In patent US8476197B2, “Aminopropenoates as fungicides” (priority 2009, dated 2013):
Marks after values point to notes of the source that are not given here.

Conditions: pH 2.3

Log P	Compound
2.42	CCOC(=O)C(C#N)=C(NC1CCSC1=O)c1cccnc1Cl (racemic) [Compound 44]
2.2	CCOC(=O)C(C#N)=C(NC(C)CSC)c1cccnc1C (centres unmarked) [Compound 648]
3	CCOC(=O)C(C#N)=C(Nc1cccc(F)c1F)c1cccnc1Cl [Compound 1604]
3.08^[c]; 3.08^[b]	CCOC(=O)C(C#N)=C(NC(C)C1CC1)c1cccnc1OCc1ccccc1 (centres unmarked) [Compound 1570]

Compound	Log P
CNC(=O)C(C#N)=C(NC(C)C1CC1)c1cccnc1Cl (racemic) [Compound 908]	2.2^[c]; 2.2^[b]

Same assay, conditions: pH 2.7

Log P	Compound
2.98^[a]	COC(=O)C(C#N)=C(NC(CC(F)(F)F)c1ccccc1)c1cccnc1Cl (centres unmarked) [Compound 389]
3.31^[a]	C=CCOC(=O)C(C#N)=C(NC(C)c1nccs1)c1sccc1Br (centres unmarked) [Compound 205]
2.8^[a]	CCOC(=O)C(C#N)=C(NC(C)c1ccc(Cl)nc1)c1cccnc1Cl (centres unmarked) [Compound 1437]
4.01^[a]	C=CCCCC(C=C)NC(=C(C#N)C(=O)OCC)c1cccnc1Cl (centres unmarked) [Compound 1176]
2.11^[a]	CCNC(=O)C(C#N)=C(NC(C)c1nccs1)c1cnn(C)c1C(F)F (centres unmarked) [Compound 1308]
3.62^[a]	CCOC(=O)C(C#N)=C(Nc1ccc(OC)cc1)c1sccc1C(F)(F)F [Compound 483]
2.13^[a]	CCOC(=O)C(C#N)=C(NCc1nccs1)c1c(C)nn(C)c1Cl [Compound 86]
0.96^[a]	CCOC(=O)C(C#N)=C(NCC(C)N)c1c(C)nn(C)c1Cl (centres unmarked) [Compound 603]
3.31^[a]	CCOC(=O)C(C#N)=C(NCc1ccc(Cl)cc1)c1cn(C)nc1C(F)F [Compound 555]
2.6^[a]	CCOC(=O)C(C#N)=C(NCc1nccs1)c1nc(Cl)ccc1Cl [Compound 226]
3.6^[a]	COC(=O)C(C#N)=C(NC(C)Cc1c[nH]c2ccccc12)c1sc(C)nc1C(F)(F)F (racemic) [Compound 133]
3.92^[a]	CC#CC(C)(C)NC(=C(C#N)C(=O)OCC)c1sccc1C(F)(F)F [Compound 1040]
1.3^[a]	COC(=O)C(C#N)=C(NC(C)C(N)=O)c1cn(C)nc1C(F)F (centres unmarked) [Compound 598]
4.01^[a]	CCOC(=O)C(C#N)=C(NCc1ccccc1SC)c1ccsc1Br [Compound 535]
3.48^[a]	CCOC(=O)C(C#N)=C(NC(C)c1ccc(Cl)cc1)c1ccncc1F (racemic) [Compound 546]
3.85^[a]	CC#CC(C)(C)NC(=C(C#N)C(=O)OCC)c1sccc1Br [Compound 1041]
3.53^[a]	CCOC(=O)C(C#N)=C(NC(CC(C)C)C(=O)OCC)c1cn(C)nc1C(F)F (centres unmarked) [Compound 1129]
3.37^[a]	CCOC(=O)C(C#N)=C(Nc1ccc(SC)cc1)c1cccnc1Cl [Compound 1170]
4.81^[a]	CCOC(=O)C(C#N)=C(NC(c1cc2ccccc2s1)C(F)(F)F)c1ccsc1I (racemic) [Compound 165]

Log P	Compound
3.94^[a]	CCOC(=O)C(C#N)=C(NC(C)C1(Cl)CC1)c1sccc1Br (centres unmarked) [Compound 771]
2.76^[a]	CCOC(=O)C(C#N)=C(NC(C)COC)c1cn(C)nc1C(Cl)Cl (centres unmarked) [Compound 1567]
3.94^[a]	CCOC(=O)C(C#N)=C(Nc1ccccc1SC)c1ccsc1I [Compound 436]
3.92^[a]	CCOC(=O)C(C#N)=C(Nc1ccccc1SC)c1sccc1Cl [Compound 435]
2.93^[a]	COC(=O)C(C#N)=C(NC(c1cccc(Cl)c1)C1CC1)c1cccnc1Cl (centres unmarked) [Compound 390]
3.17^[a]	CCOC(=O)C(C#N)=C(Nc1cccc(SC)c1)c1cn(C)nc1C(F)F [Compound 498]
3.19^[a]	CCOC(=O)C(C#N)=C(NCc1ccc(F)cn1)c1sccc1C(F)(F)F [Compound 201]
4.51^[a]	CCOC(=O)C(C#N)=C(NC(C)CCc1ccccc1)c1sccc1Br (mixture of isomers) [Compound 445]
2.92^[a]	CCOC(=O)C(C#N)=C(NC(CC)COC)c1cccnc1Cl (centres unmarked) [Compound 1367]
4.08^[a]	CCOC(=O)C(C#N)=C(NC(C)CSc1cc(Cl)ccc1Cl)c1cn(C)nc1C(F)F (racemic) [Compound 1235]
3.8^[a]	CCOC(=O)C(C#N)=C(NC(C)c1nc(C)c(C)s1)c1sccc1Br (centres unmarked) [Compound 92]
3.96^[a]	CCOC(=O)C(C#N)=C(NC(C)CON=C(C)c1ccccc1)c1cccnc1Cl (centres unmarked) [Compound 1111]
2.01^[a]	CCOC(=O)C(C#N)=C(NCc1nccs1)c1c(C)nn(C)c1F [Compound 80]
3.51^[a]	CCOC(=O)C(C#N)=C(NC(C)C(C)C)c1ccnc(C)c1Cl (centres unmarked) [Compound 1211]
5.05^[a]	CCCCCC(C)NC(=C(C#N)C(=O)OCC)c1sccc1C(F)(F)F (racemic) [Compound 849]
3.62^[a]	CCOC(=O)C(C#N)=C(NC(C)CCc1ccccc1)c1cn(C)nc1C(F)F (mixture of isomers) [Compound 453]
3.99^[a]	CCOC(=O)C(C#N)=C(NC(C)C(C)C)c1cc(C)oc1C (centres unmarked) [Compound 947]
1.33^[a]	COC(=O)C(C#N)=C(NC1CCS(=O)(=O)C1)c1cccnc1Cl (centres unmarked) [Compound 125]
3.35^[a]	CCOC(=O)C(C#N)=C(NC(C)c1ccccn1)c1ccnc(SC)c1Cl (racemic) [Compound 1393]

Log P	Compound
4.16^[a]	CCCC(C)NC(=C(C#N)C(=O)OCC)c1sccc1Br (centres unmarked) [Compound 867]
3.09^[a]	CCOC(=O)C(C#N)=C(NC(C)c1ccccn1)c1ccnc(Br)c1Cl (racemic) [Compound 1391]
4.2^[a]	CCOC(=O)C(C#N)=C(NC(C)c1ccc(Cl)cc1)c1cn(C)cc1C(F)(F)F (racemic) [Compound 542]
2.42^[a]	CCOC(=O)C(C#N)=C(NC(C)COC)c1cnn(C)c1Cl (centres unmarked) [Compound 1486]
3.58^[a]	CCC(NC(=C(C#N)C(=O)OC)c1cccnc1Cl)c1cccc(Cl)c1 (centres unmarked) [Compound 372]
3.46^[a]	CCOC(=O)C(C#N)=C(NC(C)C(C)C)c1cn(C)nc1C(Cl)Cl (centres unmarked) [Compound 1562]
2.84^[a]	CCOC(=O)C(C#N)=C(NCc1nccs1)c1ncc(C(F)(F)F)cc1Cl [Compound 75]
5.05^[a]	CCOC(=O)C(C#N)=C(NC(C)(C)C#Cc1ccc(C)cc1)c1sccc1Br [Compound 1096]
3.67^[a]	CCOC(=O)C(C#N)=C(NC(C)C1CCC1)c1cn(C)nc1C(Cl)Cl (racemic) [Compound 1561]
3.68^[a]	COC(=O)C(C#N)=C(NC(C)CCc1cccc(C)c1)c1cccnc1Cl (centres unmarked) [Compound 425]
2.08^[a]	CC(C)C(C)NC(=C(C#N)C(=O)NN(C)C)c1cccnc1Cl (centres unmarked) [Compound 1614]
3.64^[a]	CCOC(=O)C(C#N)=C(NC(C)C(F)(F)F)c1cn(C)cc1C(F)(F)F (racemic) [Compound 812]
3.78^[a]	CCOC(=O)C(C#N)=C(NC(C)CC)c1ncc(Cl)cc1Cl (racemic) [Compound 839]
3.69^[a]	CCOC(=O)C(C#N)=C(NC(C)C1CC1)c1cc(Cl)ncc1Cl (racemic) [Compound 896]
4.09^[a]	CCOC(=O)C(C#N)=C(Nc1cccc(Cl)c1)c1ccsc1Br [Compound 539]
3.82^[a]	CCOC(=O)C(C#N)=C(NC(C(=O)OC)C(C)C)c1sc(Cl)nc1Cl (centres unmarked) [Compound 710]
3.63^[a]	CCOC(=O)C(C#N)=C(NC(C)C1CC1)c1cc(C)oc1C (centres unmarked) [Compound 879]
3.92^[a]	CCOC(=O)C(C#N)=C(NC(C)C(C)CC)c1scnc1Cl (racemic) [Compound 1481]

Compound	Log P
CCOC(=O)C(C#N)=C(NC(c1ccc(Cl)cc1)C(F)(F)F)c1cccnc1Cl (racemic) [Compound 1261]	4.25^[a]
CCOC(=O)C(C#N)=C(NC(C)C(C)C)c1cn(C)nc1CC (centres unmarked) [Compound 1205]	3.13^[a]
CCOC(=O)C(C#N)=C(NC(C)c1cc(C(F)(F)F)c(Cl)cn1)c1cccnc1Cl (centres unmarked) [Compound 1638]	3.9^[a]
CCOC(=O)C(C#N)=C(NC(C)C1CC1)c1ccncc1Br (racemic) [Compound 903]	3^[a]
CCOC(=O)C(C#N)=C(NC(C)c1ccccc1)c1cccnc1Cl (centres unmarked) [Compound 1151]	3.48^[a]
CCOC(=O)C(C#N)=C(NC(C)c1ccccn1)c1cn(C)nc1C(F)F (racemic) [Compound 36]	2.33^[a]
CCOC(=O)C(C#N)=C(NC1CCC1)c1cn(C)nc1C(Cl)Cl [Compound 1566]	3.09^[a]
CCOC(=O)C(C#N)=C(NC(C)C(=O)NC)c1cc(Cl)ncc1Cl (centres unmarked) [Compound 720]	2.19^[a]
CCOC(=O)C(C#N)=C(NC(C)Cc1nccs1)c1cccnc1Cl (mixture of isomers) [Compound 294]	2.4^[a]
CCOC(=O)C(C#N)=C(NC(C)c1nccs1)c1cn(C)nc1C (centres unmarked) [Compound 1212]	2.11^[a]
CCOC(=O)C(C#N)=C(NC(C)C1CCC1)c1cccnc1Cl (centres unmarked) [Compound 1191]	3.55^[a]
CCOC(=O)C(C#N)=C(NC(C)C1CCC1)c1ccnn1C(F)F (centres unmarked) [Compound 1640]	3.56^[a]
CCOC(=O)C(C#N)=C(NC(C)c1nccs1)c1cnccc1C(F)(F)F (racemic) [Compound 256]	2.7^[a]
COC(=O)C(C#N)=C(NC(C)C1(Cl)CC1)c1cccnc1Cl (centres unmarked) [Compound 768]	2.72^[a]
CCOC(=O)C(C#N)=C(NC(C)c1ccccn1)c1ccnc(Cl)c1Cl (mixture of isomers) [Compound 289]	3.04^[a]

Same assay, conditions: pH 7.5

Log P	Compound
2.13	COCC(C)NC(=C(C#N)C(=O)OC)c1cccnc1Cl (racemic) [Compound 564]
2.23	CCOC(=O)C(C#N)=C(NC1CCSC1=O)c1cccnc1Cl (racemic) [Compound 44]
2.44	CCOC(=O)C(C#N)=C(NC(C)CSC)c1cccnc1C (centres unmarked) [Compound 648]
1.59	CCOC(=O)C(C#N)=C(NC(C)Cn1cncn1)c1cccnc1Cl (centres unmarked) [Compound 84]
2.88	CCOC(=O)C(C#N)=C(Nc1cccc(F)c1F)c1cccnc1Cl [Compound 1604]
2.35	CCOC(=O)C(C#N)=C(NC(C)CSC#N)c1cccnc1Cl (centres unmarked) [Compound 1109]
3.08^[c]; 3.08^[b]	CCOC(=O)C(C#N)=C(NC(C)C1CC1)c1cccnc1OCc1ccccc1 (centres unmarked) [Compound 1570]

Compound	Log P
CCOC(=O)C(C#N)=C(NC(C)COS(C)(=O)=O)c1cccnc1Cl (centres unmarked) [Compound 1107]	2.17
CCOC(=O)C(C#N)=C(NC(C)C1CC1)c1cccnc1Cl (centres unmarked) [Compound 878]	2.93
CNC(=O)C(C#N)=C(NC(C)C1CC1)c1cccnc1Cl (racemic) [Compound 908]	2.2^[c]; 2.2^[b]
